# Test results from patent US20220305137A1, “DRUG CONTAINING TARGETING LIPOSOMES” (NEXTAR CHEMPHARMA SOLUTIONS LTD., priority 2019, published 2022).
# Assay: Doxorubicin brain concentration after intravenous administration, LC-MS/MS
# Settings: mice, 7.5 mg/kg intravenous
# Procedure: A study was performed to determine doxorubicin distribution after administration, when comparing three doxorubicin-containing compositions, each administered to a group of 10 male ICR mice aged 7 weeks. Composition 1 was free doxorubicin.
# Animals were administered doxorubicin in the following amount per administration, for each of the three compositions. Composition 1, was administered in HEPES solution at a dose of 7.5 mg/kg, in a volume of 100 microliter (μl) via the intravenous route. Compositions 2 and 3 were each administered at a dose of 15 mg/kg (equivalent of doxorubicin) in a volume of 300 μl via the intravenous route.
# Five mice in each group were sacrificed one hour post administration, and five mice four hours post administration, and doxorubicin brain concentrations were determined using an LC-MS/MS method.
smiles,measurement,setting,value
"COc1cccc2c1C(=O)c1c(O)c3c(c(O)c1C2=O)C[C@@](O)(C(=O)CO)C[C@@H]3O[C@H]1C[C@H](N)[C@H](O)[C@H](C)O1 [Composition 1, doxorubicin]",doxorubicin brain concentration,60 minutes post administration,low brain concentration
same,doxorubicin brain concentration,240 minutes post administration,low brain concentration
